# Experimental data published in US20240043394A1, “PROTEASOME ENHANCERS AND USES THEREOF” (Board of Trustees of Michigan State University, priority 2020, published 2024).
# Experiments:
# [1] = test system: A53T mutant α-synuclein in Hek-293T cells; experiment: In cell degradation of A53T α-synuclein (Western blot); type: cell-based; settings: 10 hours; for decrease of accumulated A53T α-synuclein: normalized to vehicle
# Procedure: Error bars denote standard deviation. One-way ANOVA statistical analysis was used to determine statistical significance (ns=not significant, *p<0.05, **p<0.01, ***p<0.001, ****p<0.0001) (FIG. 4B).
# Cellular efficacy: The A53T mutation of α-synuclein has been linked to early on-set familial Parkinson's disease and appears to oligomerize faster than the wild-type protein. […] Hek-293T cells were transiently transfected with an inducible Tet-One A53T mutant α-synuclein. The cells were treated with 100 ng/mL of doxycycline to induce the production of the A53T mutant. […] The cells were then lysed and the remaining A53T α-synuclein was visualized and quantified via Western Blotting (FIG. 4, n=4).
# In cell degradation of A53T α-synuclein: In a 6 well plate, Hek293T cells were grown to 80% confluency and then transfected using Xfect biopolymer transfection system with the Tet-One A53T α-synuclein plasmid. 24 hours post transfection, 100 ng/mL of doxycycline was added to induce A53T α-synuclein expression. After 24 hours of protein induction, media was removed that contained the doxycycline and was washed with PBS. Media with the desired drug concentration or DMSO was added and treated for 10 hours. After the cells were treated with the test compounds or DMSO, the cells were scraped and the pelleted (300 g for 5 minutes). The supernatant was taken off and the cell pellet was washed with ice cold PBS and then lysed with RIPA buffer with added protease inhibitors. The cell lysate was incubated for 20 minutes on ice. The lysate was centrifuged for 15 minutes at 500 g and then the supernatant was collected. Concentrated SDS loading buffer was added and the samples were boiled for 10 minutes. The samples were then resolved on a 4-20% Tris-glycine SDS-PAGE gel and immunoblotted with mouse monoclonal anti α-synuclein IgG (1:2000) and anti-mouse HRP-linked IgG (1:2000). Blots were developed with ECL Westem reagent and imaged with an Azure Biosystems 3000 imager.
# [2] = molecular target: T1, purified human 20S proteasome, T-L site (Homo sapiens, UniProt P25787+P60900); experiment: 20S proteasome small peptide assay, Boc-LRR-AMC trypsin-like probe; type: biochemical; settings: for AC200 T-L site: concentration needed to double rate vs vehicle
# T1 construct: purchased Boston Biochem or Life Sensors E-360 or ps020
# Procedure: (§1) In vitro testing, 20S activation: The 20S proteasome activity of the compounds was assessed by utilizing the standard fluorogenic 7-amino-methylcoumarin (AMC) conjugated small peptide substrates that correspond to each of the catalytic sites in the 20S proteasome: chymotryptic-like site (Suc-LLVY-AMC), caspase-like site (Z-LLE-AMC), and trypsin-like site (Boc-LRR-AMC). When the small peptide substrate is degraded by the 20S proteasome, the AMC fluorophore is released and quantified to measure the rate of proteolytic cleavage. The 20S proteasome activity of the small molecules was evaluated at varying concentrations to determine the concentration at which the rate of proteolysis was doubled (i.e. the concentration needed to induce 200% activity) compared to the vehicle control (hereafter named as AC200). Concentrations ranging from 1.25 μM to 80 μM of each of compound were added to wells that contained 0.5 nM of purified human proteasome.
# (§2) The overall enhancement of the rate of proteolysis of the 20S proteasome by a small molecule was first evaluated by adding a combination of all three peptide substrates to the treated sample. The combination of all three substrates represents a more accurate measurement of proteolytic activity of the proteasome because the catalytic sites housed in the β ring of the 20S proteasome communicate through allosteric interactions. For example, when a protein substrate encounters the chymotryptic-like site, a conformational change will occur activating the caspase-like site.^61 The individual contribution of each of the three catalytic sites was subsequently evaluated by adding only the corresponding peptide probes to gain insight into the contribution of each site on the overall enhanced proteolytic activity.
# (§3) The fluorescent output, due to release of the AMC fluorophore, was then converted to the fold increase compared to a vehicle control sample, and the AC200 was calculated. […] (Table 1).
# (§4) AC200 represents the concentration needed to double (e.g., 200%) the rate of substrate degradation compared to vehicle control. Max fold is the maximum fold rate increase compared to vehicle control.
# (§5) 20S Proteasome Small Peptide Assay: Activity assays were carried out in a black flat/clear bottom 96 well plate with a […] volume. Concentrations of the potential activators, varying from 80 μM to 1.25 μM, were added to the well that contained 1 nM 20S proteasome purchased from either Boston Biochem (catalog number E-360) or Life Sensors (catalog number ps020), in a […] buffer at a pH of 7.8. This solution was left to incubate at 37° C. for 15 minutes. For the assay for the overall proteasome activity, 13.33 μM of each small peptide substrate is added. The 96 well plate is then placed into a plate reader (SpectraMax M5e spectrometer) and the plate reader will take a fluorescent reading every 5 minutes for an hour at 37° C. The enzymatic activity of the 20S proteasome is quantified using the fluorescent output at 380-460 nm, which is converted to max fold increase over the untreated sample. The activity of the individual catalytic assays is identical to the assay that assesses the overall activity of the 20S proteasome except only one small peptide substrate is added. To evaluate the activity of the CT-L and the Casp-L sites, 10 μM of the Suc-LLVY-AMC (Boston Biochem S-280) and Z-LLE-AMC (Boston Biochem S-230) were added, respectively. To evaluate the activity of the T-L site, 20 μM of the Boc-LRR-AMC (Boston Biochem S-300) is added.
# 26S proteasome = 26S proteasome (Homo sapiens, UniProt P25787+P60900); experiment: Fluorogenic small peptide degradation assay with the 26S proteasome (ATP and magnesium chloride added); type: biochemical; settings: for 26S proteasome activation, in words: concentration range 0-80 μM
# Procedure: The fluorogenic small peptide degradation assay was conducted again, with the 26S proteasome in place of the 20S proteasome. To ensure that the 26S proteasome remained in its fully assembled complex, ATP and magnesium chloride were added.
# [3] = molecular target: T2, purified human 20S proteasome, Casp-L site (Homo sapiens, UniProt P25787+P60900); experiment: 20S proteasome small peptide assay, Z-LLE-AMC caspase-like probe; type: biochemical; settings: for AC200 Casp-L site: concentration needed to double rate vs vehicle
# T2 construct: purchased Boston Biochem or Life Sensors E-360 or ps020
# Procedure: as §1, §2, §3, §4, §5
# [4] = molecular target: T3, purified human 20S proteasome (Homo sapiens, UniProt P25787+P60900); experiment: 20S proteasome small peptide assay, combination of all three fluorogenic substrates (CT-L/Casp-L/T-L); type: biochemical; parameters: key to 20S proteasome activation, classed in words: compounds that exhibit a maximum fold enhancement of <2 fold (i.e. <200%) at a concentration >20 μM were considered inactive; settings: for AC200 CT-L/Casp-L/T-L: concentration needed to double (200%) the rate of substrate degradation vs vehicle; for AC200 CT-L/Casp-L/T-L / Max Fold CT-L/Casp-L/T-L: three probes combined; for Max Fold CT-L/Casp-L/T-L: maximum fold rate increase vs vehicle control
# T3 construct: purchased Boston Biochem or Life Sensors E-360 or ps020
# Procedure: as §1, §2, §3, §4, §5
# [5] = molecular target: T4, purified human 20S proteasome, CT-L site (Homo sapiens, UniProt P25787+P60900); experiment: 20S proteasome small peptide assay, Suc-LLVY-AMC chymotryptic-like probe; type: biochemical; settings: for AC200 CT-L site: concentration needed to double rate vs vehicle; for Max Fold CT-L site: maximum fold rate increase vs vehicle
# T4 construct: purchased Boston Biochem or Life Sensors E-360 or ps020
# Procedure: as §1, §2, §3, §4, §5
# [6] = molecular target: T3, purified human 20S proteasome; experiment: Digestion of purified α-synuclein by purified 20S proteasome (silver staining); type: biochemical
# Procedure: Quantification of α-synuclein degradation by each compound was done in triplicate. One-way ANOVA statistical analysis was used to determine statistical significance (ns=not significant, *p<0.05, *p<0.01, ***p<0.001, ****p<0.0001).
# In vitro testing, IDP degradation: The ability of our small molecules 20S proteasome activators to degrade pathologically relevant IDPs was evaluated in vitro and in cells. […] Then, purified α-synuclein was added and the digestion was incubated at 37° for 6 hours. An SDS loading buffer was added and the samples were boiled to halt α-synuclein degradation. The percentage of remaining α-synuclein was visualized and quantified using silver staining (FIG. 3). Compound 2 was able to increase the rate of degradation of full length α-synuclein. At the highest concentration (5 μM), α-synuclein was reduced up to 33%.
# Digestion of purified α-synuclein: Degradation assays were carried out in a 50 μL reaction volume of […] buffer at a pH of 7.8, 0.5 μM of purified α-synuclein, and 7.5 nM purified human 20S proteasome. The 20S proteasome was first diluted to 8.56 nM in the Tris-HCl buffer and 1 μL of the test compounds or DMSO was added. This mixture was incubated for 20 minutes at 37° C. After this incubation, 5 μL of a 5 μM stock of α-synuclein was added. The degradation mixture was incubated at 37° C. for 5 hours. The reaction was stopped with addition of concentrated SDS loading buffer and boiled for 10 minutes. After the samples were boiled, they were resolved on a 4-20% Tris-glycine SDS-PAGE gel and visualized using silver staining.
# [7] = maximum fold rate increase vs vehicle
smiles,measurement,setting,value
"CCOC(=O)[C@]1(c2ccccc2)N=C(c2ccc(OC)cc2)N(Cc2ccccc2)[C@@H]1c1ccc(NCc2ccccc2)cc1 [TCH-165, reference compound]",decrease of accumulated A53T α-synuclein,[1]; 10 μM,40%
"CN(C)CCCN1c2ccccc2Sc2ccc(Cl)cc21 [CPZ, chlorpromazine, reference compound]",AC200 T-L site,[2],>80 µM
same,"26S proteasome activation, maximum fold increase over the vehicle control",26S proteasome; at higher concentrations (range 0-80 μM),2 fold
same,"26S proteasome activation, in words",26S proteasome,did not enhance the proteolytic activity of the 26S proteasome
same,AC200 Casp-L site,[3],>80 µM
same,AC200 CT-L/Casp-L/T-L,[4],13.5 µM
same,Max Fold CT-L/Casp-L/T-L,[4],~4 fold
same,AC200 CT-L site,[5],7 µM
same,Max Fold CT-L site,[5],8 fold
"Oc1ccc(CN2c3ccccc3Sc3ccc(Cl)cc32)cc1 [Compound 8, 4-((2-Chloro-10H-phenothiazin-10-yl)methyl)phenol]",AC200 T-L site,[2],>80 µM
same,AC200 Casp-L site,[3],>80 µM
same,"decrease of A53T mutant α-synuclein, in words",[1]; 10 μM,no decrease
same,AC200 CT-L/Casp-L/T-L,[4],>80 µM
same,"20S proteasome activation, classed in words",[4]; concentrations tested 1.25 μM to 80 μM,inactive
same,AC200 CT-L site,[5],>80 µM
"O=C(CCN1c2ccccc2Sc2ccc(Cl)cc21)N(c1ccc(F)cc1)c1ccc(F)cc1 [Compound 19, 3-(2-chloro-10H-phenothiazin-10-yl)-N,N-bis(4-fluorophenyl)propanamide]",AC200 T-L site,[2],0.3 µM
same,Max Fold T-L site,[2]; [7],6 fold
same,"26S proteasome activation, in words",26S proteasome,did not display any 26S proteasome activation
same,AC200 Casp-L site,[3],1.8 µM
same,Max Fold Casp-L site,[3]; [7],9.4 fold
same,"reduction of A53T mutant α-synuclein, in words",[1]; 3 μM (lowest concentration),reduce the concentration of the A53T mutant α-synuclein significantly
same,decrease of accumulated A53T α-synuclein,[1]; 10 μM,58%
same,AC200 CT-L/Casp-L/T-L,[4],0.4 µM
same,Max Fold CT-L/Casp-L/T-L,[4],11 fold
same,AC200 CT-L site,[5],0.7 µM
same,Max Fold CT-L site,[5],9.4 fold
same,"depletion of α-synuclein over concentration range, in words",[6]; 0.1 μM to 5 μM,clear dose dependent depletion
same,decrease of α-synuclein,"[6]; 0.5 μM compound, 37° C., 6 hours",34%
same,reduction of α-synuclein,"[6]; 5 μM compound, 37° C., 6 hours",57%
